Data: patent US10137171B2, “Methods of treatment using a pentapeptide derived from the C-Terminus of Glucagon-Like Peptide 1 (GLP-1)” (The General Hospital Corporation, priority 2011, dated 2018)
“Also recorded” adds a separate entry of the source. Where no end group is shown, it is not given here.

What was measured:
diet-induced obese mice = experiment: Dual energy X-ray absorptiometry (DXA) of lean, fat and total body mass; format: in vivo, mouse
Excerpt: FIGS. 2A-D are bar graphs showing the results of determinations of lean, fat, and total body mass by dual X-ray absorptiometry (DXA) of mice receiving continuous infusions of the pentapeptide […] or control vehicle alone for 16 weeks. At the time of the study the mice were 39 weeks of age and on the very high fat diet for 33 weeks. 2A. Fat versus lean mass. The fat mass is 40% less in the pentapeptide infused compared to the control vehicle infused mice. *P<0.0008. […] 2B. Total body mass (lean+fat) differences in peptide infused versus vehicle control infused obese mice. *P<0.002. 2C. Fat mass expressed as the fraction of fat mass in peptide infused mice versus vehicle control infused obese mice. *P<0.0008. 2D. Fat mass expressed as the percentage of body weight, peptide-infused versus vehicle control-infused obese mice. *P<0.001. N=6 mice per group. Values are means+/−SEMs.
Mice were anesthetized with 0.02 ml of a 2% tribromoethanol solution per gram of body weight and scanned with a dual X-ray apparatus (Lunar Piximus, GE Medical Systems, Wauwatosa, Wis.). Total, fat, and lean body mass was quantitatively determined.

[1] = test system: insulin-resistant isolated mouse hepatocytes; experiment: Glucose production assay in isolated hepatocytes; format: cell-based; conditions: stimulated by cAMP/dexamethasone/lactate; basal glucose production not suppressed
Excerpt: FIG. 8 is a bar graph showing suppression of glucose production by the pentapeptide GLP-1(32-36)amide (LVKGRamide (SEQ ID NO:1)) in insulin-resistant hepatocytes. Mice (male, C57bl/6) from 12-19 weeks of age were fasted overnight (16 hrs) and primary hepatocytes were isolated using a collagen and perfusion gradient purification. Cells were first seeded using a Dulbecco's modified Eagle's medium (DMEM) supplemented with 10% FBS, 1 g/L glucose, 2 mmol/1 sodium pyruvate, 1 micromol/L dexamethasone, and 0.1 micromol/L insulin, and later maintained in DMEM with 0.2% BSA, 1 g/L glucose, 0.1 micromol/L dexamethasone, and lnmol/L insulin. […] The readings were then normalized to total protein content determined from whole-cell lysates. […]
Primary hepatocytes (2×10^5 cells per well in twelve-well plates) were pre-treated with GLP-1(32-36)amide for 1 hour followed by the stimulation of insulin resistance by the addition of cAMP (10 microM)/dexamethasone ([…])/sodium lactate (2 mM) in glucose-free DMEM without phenol red. […] The readings were then normalized to total protein content determined from whole-cell lysates.

H4IIe hepatoma cells = experiment: ROS formation assay (H4IIe hepatoma cells); format: cell-based; conditions: 0.2 mM palmitate 24 hr, 100 pM peptide (FIG. 9B)
Experimental: FIG. 9B is a bar graph showing inhibition of the production of ROS in H4IIe hepatoma cells. BSA n=14. palmitate n=13. 32-36/palmitate n=12. *p<0.005 palmitate vs BSA, # p<0.03 palmitate vs GLP-1(32-36)a/palmitate
H4IIe cells were seeded in 12-well plates at a density of 1×10^4/well and incubated overnight in media containing 5.0 mM glucose. Media was then supplemented with 0.20 mM palmitate in BSA, with and without 100 pM GLP-1(32-36)amide and incubated for an additional 24 h. Intracellular ROS was measured by 5-(and 6)-carboxy-2′,7′-dichlorohydro-fluorescein diacetate (CM-H2DCFDA) (Molecular Probes) as follows. Cells were washed twice in HBSS (Hanks' Balance Salt Solution) and incubated with 10 uM CM-H2DCFDA for 45 minutes. The media were removed and cells were lysed. ROS was measured in the cell lysates using a spectrofluorometer (485 nm/535 nm). Data were normalized to values obtained from the cells treated with palmitate. BSA n=14. Palmitate n=13. 32-36/Palmitate n=12.

[2] = after 16 weeks infusion, VHFD mice (FIG. 2A)

Question: Which “relative (%) fat mass compared to vehicle-treated mice (DXA)” value (diet-induced obese mice; after 16 weeks infusion (FIG. 2C)) does the source give for “LVKGRamide (LVKGR-NH2) [GLP-1(32-36)amide, pentapeptide derived from the C-terminus of the glucoincretin hormone GLP-1]” here?
Answer: decreased

Question: What about the “fat mass reduction compared to vehicle control (DXA)” value (diet-induced obese mice; [2]) of the same substance?
Answer: 40%

Question: What about the “lean mass change compared to vehicle control (DXA)” value (diet-induced obese mice; [2]) of the same substance?
Answer: no significant difference

Question: And the “lean mass change compared to vehicle control (DXA)” value (diet-induced obese mice; after 16 weeks infusion, VHFD mice (FIG. 2A), listed as pentapeptide)?
Answer: no significant changes; also recorded: no significant difference

Question: What about the “total body mass (body weight) (DXA)” value (diet-induced obese mice; after 16 weeks infusion, vs vehicle (FIG. 2B)) of the same substance?
Answer: decreased

Question: What about the “ratio of fat mass to body weight (DXA)” value (diet-induced obese mice; after 16 weeks infusion, vs vehicle (FIG. 2D)) of the same substance?
Answer: decreased

Question: What about the “glucose production (formation)” value [1] of the same substance?
Answer: suppression

Question: And the ROS production (H4IIe hepatoma cells)?
Answer: nearly completely normalizes

Question: And the ROS production (H4IIe hepatoma cells; listed as GLP-1(32-36)a)?
Answer: inhibition
